Experimental data taken from the supplement of paper PMC10307832.

Key:
Assay in all cases: relative viability (nuclei count vs DMSO), 5 days (fraction); higher = more cells survive
[1] = compound: C#Cc1cccc(Nc2ncnc3cc(OC)c(OCCCCCCC(=O)NO)cc23)c1 [CUDC-101] + CCNC(=O)c1noc(-c2cc(C(C)C)c(O)cc2O)c1-c1ccc(CN2CCOCC2)cc1 [Luminespib] (partner 0.01 µM)
Summary of the method: (§1)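 A single step with final 0.05% Triton X-100, 1% formaldehyde and 1 ug/ml Hoechst fixed the cells and stained nuclei 5 days after treatment. Lung cancer cell lines in 1536-well plates had been treated by pin tool the day after seeding with one drug alone or a fixed anchor-drug dose plus five library-drug doses (not always all listed) in √10 steps, and nuclei were counted on 4× images. Relative viability is the ratio of nuclei in treated wells to nuclei in vehicle wells, taken as the median of duplicate plates.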

[2] = compound: C#Cc1cccc(Nc2ncnc3cc(OC)c(OCCCCCCC(=O)NO)cc23)c1 [CUDC-101] + C[C@]1(O)C[C@@H](c2nc(-c3ccc4ccc(-c5ccccc5)nc4c3)c3c(N)nccn32)C1 [Linsitinib] (partner 1 µM)
Summary of the method: as §1

[3] = compound: C#Cc1cccc(Nc2ncnc3cc(OC)c(OCCCCCCC(=O)NO)cc23)c1 [CUDC-101] + O=C(c1cc(Cc2n[nH]c(=O)c3ccccc23)ccc1F)N1CCN(C(=O)C2CC2)CC1 [Olaparib] (partner 8 µM)
Summary of the method: as §1

[4] = compound: COc1cc(N2CCC(N3CCN(C)CC3)CC2)ccc1Nc1ncc(Cl)c(Nc2ccccc2S(=O)(=O)C(C)C)n1 [NVP-TAE684] + CS(=O)(=O)N1CCN(Cc2cc3nc(-c4cccc5[nH]ncc45)nc(N4CCOCC4)c3s2)CC1 [Pictilisib] (partner 1 µM)
Summary of the method: as §1

Row | Cell Line | relative viability ([1]; first compound 0.01 µM) | relative viability ([1]; first compound 0.03162 µM) | relative viability ([1]; first compound 0.1 µM) | relative viability ([1]; first compound 0.3162 µM) | relative viability ([1]; first compound 1 µM) | relative viability ([2]; first compound 0.01 µM) | relative viability ([2]; first compound 0.03162 µM) | relative viability ([2]; first compound 0.1 µM) | relative viability ([2]; first compound 0.3162 µM) | relative viability ([2]; first compound 1 µM) | relative viability ([3]; first compound 0.01 µM) | relative viability ([3]; first compound 0.03162 µM) | relative viability ([3]; first compound 0.1 µM) | relative viability ([3]; first compound 0.3162 µM) | relative viability ([3]; first compound 1 µM) | relative viability ([4]; first compound 0.2 µM) | relative viability ([4]; first compound 0.6325 µM) | relative viability ([4]; first compound 2 µM)
1 | NCI-H1792 | 0.459 | 0.381 | 0.578 | 0.504 | 0.25 | 0.558 | 0.407 | 0.54 | 0.547 | 0.454 | 0.495 | 0.379 | 0.381 | 0.407 | 0.278 | 0.227 | 0.256 | 0.232
2 | NCI-H1793 | 0.17 | 0.174 | 0.174 | 0.201 | 0.143 | 0.898 | 0.73 | 0.803 | 0.779 | 0.633 | 0.857 | 0.753 | 0.888 | 0.944 | 0.549 | 0.426 | 0.326 | 0.519
3 | NCI-H1915 | 0.908 | 0.787 | 0.774 | 0.788 | 0.551 | 1.1 | 1.16 | 1.07 | 1.11 | 1 | 0.25 | 0.232 | 0.225 | 0.229 | 0.164 | 0.98 | 0.932 | 0.874
4 | NCI-H1944 | 0.757 | 0.545 | 0.732 | 0.565 | 0.53 | 1.27 | 0.898 | 1.14 | 1.05 | 0.849 | 0.4 | 0.349 | 0.353 | 0.333 | 0.235 | 0.334 | 0.308 | 0.3
5 | NCI-H1975 | 0.336 | 0.155 | 0.254 | 0.351 | 0.213 | 1.1 | 0.881 | 1.01 | 0.888 | 0.905 | 0.853 | 0.737 | 0.818 | 0.859 | 0.745 | 0.281 | 0.231 | 0.191
6 | NCI-H1993 | 0.933 | 0.772 | 0.72 | 0.772 | 0.535 | 0.755 | 0.756 | 0.738 | 0.772 | 0.705 | 1.04 | 0.963 | 1.02 | 1.1 | 0.667 | – | 0.781 | 0.832
7 | NCI-H2009 | 1.07 | 0.904 | 1.06 | 1.02 | 0.928 | 1.21 | 1.14 | 1.19 | 1.2 | 1.17 | 0.698 | 0.694 | 0.697 | 0.615 | 0.646 | 0.949 | 0.68 | 0.514
8 | NCI-H2023 | 0.807 | 0.568 | 0.855 | 0.797 | 0.632 | 0.636 | 0.482 | 0.606 | 0.776 | 0.608 | 0.499 | 0.448 | 0.453 | 0.486 | 0.387 | 0.244 | 0.137 | 0.109
9 | NCI-H2085 | 0.479 | 0.446 | 0.437 | 0.45 | 0.385 | 0.808 | 0.985 | 0.914 | 0.929 | 0.792 | 0.766 | 0.806 | 0.721 | 0.813 | 0.676 | 0.445 | 0.427 | 0.415
10 | NCI-H2087 | 0.174 | 0.186 | 0.176 | 0.177 | 0.198 | 0.916 | 0.87 | 1.01 | 0.882 | 0.812 | 0.698 | 0.614 | 0.522 | 0.578 | 0.488 | 0.942 | 0.886 | 0.858
11 | NCI-H2126 | 1.03 | 0.871 | 0.938 | 0.891 | 0.793 | 0.742 | 0.646 | 0.733 | 0.648 | 0.586 | 0.875 | 0.919 | 0.905 | 0.968 | 0.787 | 0.491 | 0.501 | 0.428
12 | NCI-H2228 | 0.114 | 0.164 | 0.169 | 0.19 | 0.188 | 0.894 | 0.652 | 0.625 | 0.722 | 0.949 | 0.756 | 0.783 | 1.03 | 0.659 | 0.653 | 0.281 | 0.167 | 0.223
13 | NCI-H2347 | 0.617 | 0.458 | 0.47 | 0.415 | 0.331 | 1.09 | 0.91 | 0.963 | 1.05 | 0.98 | 0.677 | 0.681 | 0.626 | 0.686 | 0.479 | 0.572 | 0.482 | 0.597
14 | NCI-H2405 | 0.797 | 0.662 | 0.703 | 0.917 | 0.741 | 1.03 | 0.702 | 0.981 | 1.14 | 0.851 | 0.901 | 0.844 | 0.861 | 0.908 | 0.817 | 0.522 | 0.348 | 0.284
15 | NCI-H3122 | 0.118 | 0.0939 | 0.0988 | 0.112 | 0.0815 | 1.06 | 1.01 | 1.03 | 1.08 | 0.989 | 0.61 | 0.647 | 0.625 | 0.598 | 0.558 | 0.211 | 0.181 | 0.202
16 | PC-3 [JPC-3] | 0.739 | 0.648 | 0.64 | 0.563 | 0.301 | 0.987 | 0.91 | 0.789 | 0.667 | 0.383 | 1.09 | 0.959 | 0.821 | 0.515 | 0.479 | 0.697 | 0.684 | 0.65
17 | PC-14 | 0.133 | 0.208 | 0.16 | 0.115 | 0.114 | 0.986 | 0.782 | 1.01 | 0.683 | 0.137 | 0.273 | 0.317 | 0.295 | 0.165 | 0.0702 | 0.726 | 0.589 | 0.157
18 | RERF-LC-KJ | 1.36 | 1.3 | 1.25 | 1.18 | 0.794 | 0.965 | 1.01 | 0.839 | 0.849 | 0.694 | 0.939 | 0.917 | 0.92 | 0.818 | 0.699 | 0.613 | 0.484 | 0.494
